Measurements taken from ChEMBL document CHEMBL5370535, “Thiazolyl hydrazineylidenyl indolones as unique potential multitargeting broad-spectrum antimicrobial agents” (Eur J Med Chem, 2023).
In brackets after ≈: the same amount, converted by molar mass.

What was measured:
Assay type in all cases: functional
Staphylococcus aureus [1] = test: Antibacterial activity against methicillin-resistant Staphylococcus aureus assessed as bacterial growth inhibition incubated for 24 hrs by CLSI based two serial dilution assay
Enterococcus faecalis = test: Antibacterial activity against Enterococcus faecalis assessed as bacterial growth inhibition incubated for 24 hrs by CLSI based two serial dilution assay
Staphylococcus aureus [2] = test: Antibacterial activity against Staphylococcus aureus assessed as bacterial growth inhibition incubated for 24 hrs by CLSI based two serial dilution assay
Staphylococcus aureus [3] = test: Antibacterial activity against Staphylococcus aureus 25923 assessed as bacterial growth inhibition incubated for 24 hrs by CLSI based two serial dilution assay
Staphylococcus aureus [4] = test: Antibacterial activity against Staphylococcus aureus 29213 assessed as bacterial growth inhibition incubated for 24 hrs by CLSI based two serial dilution assay
Klebsiella pneumoniae = test: Antibacterial activity against Klebsiella pneumoniae assessed as bacterial growth inhibition incubated for 24 hrs by CLSI based two serial dilution assay
Escherichia coli [5] = test: Antibacterial activity against Escherichia coli assessed as bacterial growth inhibition incubated for 24 hrs by CLSI based two serial dilution assay
Escherichia coli [6] = test: Antibacterial activity against Escherichia coli 25922 assessed as bacterial growth inhibition incubated for 24 hrs by CLSI based two serial dilution assay
Pseudomonas aeruginosa [7] = test: Antibacterial activity against Pseudomonas aeruginosa assessed as bacterial growth inhibition incubated for 24 hrs by CLSI based two serial dilution assay
Pseudomonas aeruginosa [8] = test: Antibacterial activity against Pseudomonas aeruginosa ATCC 27853 assessed as bacterial growth inhibition incubated for 24 hrs by CLSI based two serial dilution assay
Acinetobacter baumannii = test: Antibacterial activity against Acinetobacter baumannii assessed as bacterial growth inhibition incubated for 24 hrs by CLSI based two serial dilution assay
Staphylococcus aureus [9] = test: Induction of resistance development in methicillin-resistant Staphylococcus aureus assessed as fold increase in MIC measured after consecutive passages for 24 hrs by serial passaging assay
Candida albicans [10] = test: Antifungal activity against Candida albicans assessed as inhibition of fungal growth incubated for 24 hrs by CLSI based two serial dilution assay
Candida albicans [11] = test: Antifungal activity against Candida albicans ATCC 90023 assessed as inhibition of fungal growth incubated for 24 hrs by CLSI based two serial dilution assay
Candida tropicalis = test: Antifungal activity against Candida tropicalis assessed as inhibition of fungal growth incubated for 24 hrs by CLSI based two serial dilution assay
Candida parapsilosis = test: Antifungal activity against Candida parapsilosis ATCC 22019 assessed as inhibition of fungal growth incubated for 24 hrs by CLSI based two serial dilution assay; settings: Lodderomyces parapsilosis
Aspergillus fumigatus = test: Antifungal activity against Aspergillus fumigatus assessed as inhibition of fungal growth incubated for 24 hrs by CLSI based two serial dilution assay

| SMILES | MIC (Staphylococcus aureus [1]) | MIC (Enterococcus faecalis) | MIC (Staphylococcus aureus [2]) | MIC (Staphylococcus aureus [3]) | MIC (Staphylococcus aureus [4]) | MIC (Klebsiella pneumoniae) | MIC (Escherichia coli [5]) | MIC (Escherichia coli [6]) | MIC (Pseudomonas aeruginosa [7]) | MIC (Pseudomonas aeruginosa [8]) | MIC (Acinetobacter baumannii) | fold change (FC) (Staphylococcus aureus [9]) | MIC (Candida albicans [10]) | MIC (Candida albicans [11]) | MIC (Candida tropicalis) | MIC (Candida parapsilosis) | MIC (Aspergillus fumigatus) |
| --- | --- | --- | --- | --- | --- | --- | --- | --- | --- | --- | --- | --- | --- | --- | --- | --- | --- |
| CCn1cc(C(=O)O)c(=O)c2cc(F)c(N3CCNCC3)cc21 [NORFLOXACIN] | 4 µM (≈ 1.28 µg/mL) | 4 µM (≈ 1.28 µg/mL) | 1 µM (≈ 0.319 µg/mL) | 1 µM (≈ 0.319 µg/mL) | 2 µM (≈ 0.639 µg/mL) | 4 µM (≈ 1.28 µg/mL) | 16 µM (≈ 5.11 µg/mL) | 8 µM (≈ 2.55 µg/mL) | 2 µM (≈ 0.639 µg/mL) | 0.5 µM (≈ 0.16 µg/mL) | 8 µM (≈ 2.55 µg/mL) | 4 | – | – | – | – | – |
| CCCCN1C(=O)/C(=N\Nc2nccs2)c2cc(C)ccc21 | 4 µM (≈ 1.26 µg/mL) | 32 µM (≈ 10.1 µg/mL) | 4 µM (≈ 1.26 µg/mL) | 8 µM (≈ 2.52 µg/mL) | 2 µM (≈ 0.629 µg/mL) | 2 µM (≈ 0.629 µg/mL) | 4 µM (≈ 1.26 µg/mL) | 4 µM (≈ 1.26 µg/mL) | 16 µM (≈ 5.03 µg/mL) | 32 µM (≈ 10.1 µg/mL) | 2 µM (≈ 0.629 µg/mL) | – | 4 µM (≈ 1.26 µg/mL) | 4 µM (≈ 1.26 µg/mL) | 2 µM (≈ 0.629 µg/mL) | 1 µM (≈ 0.314 µg/mL) | 2 µM (≈ 0.629 µg/mL) |
| CCCCN1C(=O)/C(=N\Nc2nccs2)c2cccc(Cl)c21 | 0.5 µM (≈ 0.167 µg/mL) | 1 µM (≈ 0.335 µg/mL) | 64 µM (≈ 21.4 µg/mL) | 0.5 µM (≈ 0.167 µg/mL) | 64 µM (≈ 21.4 µg/mL) | 0.5 µM (≈ 0.167 µg/mL) | 1 µM (≈ 0.335 µg/mL) | 0.5 µM (≈ 0.167 µg/mL) | 1 µM (≈ 0.335 µg/mL) | 0.5 µM (≈ 0.167 µg/mL) | 0.5 µM (≈ 0.167 µg/mL) | – | 0.5 µM (≈ 0.167 µg/mL) | 1 µM (≈ 0.335 µg/mL) | 4 µM (≈ 1.34 µg/mL) | 32 µM (≈ 10.7 µg/mL) | 128 µM (≈ 42.9 µg/mL) |
| O=C1/C(=N\Nc2nccs2)c2ccccc2N1Cc1ccccc1F | 8 µM (≈ 2.82 µg/mL) | 8 µM (≈ 2.82 µg/mL) | 4 µM (≈ 1.41 µg/mL) | 4 µM (≈ 1.41 µg/mL) | 256 µM (≈ 90.2 µg/mL) | 512 µM (≈ 180 µg/mL) | 512 µM (≈ 180 µg/mL) | 256 µM (≈ 90.2 µg/mL) | 256 µM (≈ 90.2 µg/mL) | 512 µM (≈ 180 µg/mL) | 512 µM (≈ 180 µg/mL) | – | 64 µM (≈ 22.6 µg/mL) | 128 µM (≈ 45.1 µg/mL) | 16 µM (≈ 5.64 µg/mL) | 128 µM (≈ 45.1 µg/mL) | 128 µM (≈ 45.1 µg/mL) |
| CCCCN1C(=O)/C(=N\Nc2nccs2)c2cc(OC)ccc21 | 8 µM (≈ 2.64 µg/mL) | 4 µM (≈ 1.32 µg/mL) | 32 µM (≈ 10.6 µg/mL) | 16 µM (≈ 5.29 µg/mL) | 16 µM (≈ 5.29 µg/mL) | 128 µM (≈ 42.3 µg/mL) | 16 µM (≈ 5.29 µg/mL) | 4 µM (≈ 1.32 µg/mL) | 4 µM (≈ 1.32 µg/mL) | 32 µM (≈ 10.6 µg/mL) | 16 µM (≈ 5.29 µg/mL) | – | 64 µM (≈ 21.1 µg/mL) | 32 µM (≈ 10.6 µg/mL) | 128 µM (≈ 42.3 µg/mL) | 16 µM (≈ 5.29 µg/mL) | 32 µM (≈ 10.6 µg/mL) |
| O=C1/C(=N\Nc2nccs2)c2ccccc2N1Cc1ccc(F)cc1 | 128 µM (≈ 45.1 µg/mL) | 2 µM (≈ 0.705 µg/mL) | 64 µM (≈ 22.6 µg/mL) | 4 µM (≈ 1.41 µg/mL) | 4 µM (≈ 1.41 µg/mL) | 16 µM (≈ 5.64 µg/mL) | 16 µM (≈ 5.64 µg/mL) | 16 µM (≈ 5.64 µg/mL) | 16 µM (≈ 5.64 µg/mL) | 4 µM (≈ 1.41 µg/mL) | 16 µM (≈ 5.64 µg/mL) | – | 32 µM (≈ 11.3 µg/mL) | 128 µM (≈ 45.1 µg/mL) | 32 µM (≈ 11.3 µg/mL) | 64 µM (≈ 22.6 µg/mL) | 128 µM (≈ 45.1 µg/mL) |
| O=C1/C(=N\Nc2nccs2)c2ccccc2N1Cc1cccc(Cl)c1 | 16 µM (≈ 5.9 µg/mL) | 32 µM (≈ 11.8 µg/mL) | 32 µM (≈ 11.8 µg/mL) | 8 µM (≈ 2.95 µg/mL) | 16 µM (≈ 5.9 µg/mL) | 256 µM (≈ 94.4 µg/mL) | 128 µM (≈ 47.2 µg/mL) | 256 µM (≈ 94.4 µg/mL) | 256 µM (≈ 94.4 µg/mL) | 512 µM (≈ 189 µg/mL) | 256 µM (≈ 94.4 µg/mL) | – | 256 µM (≈ 94.4 µg/mL) | 128 µM (≈ 47.2 µg/mL) | 64 µM (≈ 23.6 µg/mL) | 128 µM (≈ 47.2 µg/mL) | 16 µM (≈ 5.9 µg/mL) |
| CCCCCCN1C(=O)/C(=N\Nc2nccs2)c2ccccc21 | 64 µM (≈ 21 µg/mL) | 4 µM (≈ 1.31 µg/mL) | 16 µM (≈ 5.26 µg/mL) | 32 µM (≈ 10.5 µg/mL) | 2 µM (≈ 0.657 µg/mL) | 16 µM (≈ 5.26 µg/mL) | 64 µM (≈ 21 µg/mL) | 16 µM (≈ 5.26 µg/mL) | 4 µM (≈ 1.31 µg/mL) | 32 µM (≈ 10.5 µg/mL) | 16 µM (≈ 5.26 µg/mL) | – | 32 µM (≈ 10.5 µg/mL) | 64 µM (≈ 21 µg/mL) | 16 µM (≈ 5.26 µg/mL) | 64 µM (≈ 21 µg/mL) | 32 µM (≈ 10.5 µg/mL) |
| CCCCN1C(=O)/C(=N\Nc2nccs2)c2ccc(Br)cc21 | 1 µM (≈ 0.379 µg/mL) | 4 µM (≈ 1.52 µg/mL) | 1 µM (≈ 0.379 µg/mL) | 0.5 µM (≈ 0.19 µg/mL) | 4 µM (≈ 1.52 µg/mL) | 0.5 µM (≈ 0.19 µg/mL) | 0.5 µM (≈ 0.19 µg/mL) | 16 µM (≈ 6.07 µg/mL) | 1 µM (≈ 0.379 µg/mL) | 0.5 µM (≈ 0.19 µg/mL) | 0.5 µM (≈ 0.19 µg/mL) | – | 0.5 µM (≈ 0.19 µg/mL) | 1 µM (≈ 0.379 µg/mL) | 1 µM (≈ 0.379 µg/mL) | 0.5 µM (≈ 0.19 µg/mL) | 0.5 µM (≈ 0.19 µg/mL) |
